Results: the NIST ThermoML archive (doi:10.1016/j.jct.2013.11.021)

Tests used:
[1] = mn = molality of the nth substance listed, in mol/kg; settings: 101 kPa, Liquid; for speed of sound: Sing-around technique in a fixed-path interferometer; for mass density: Vibrating tube method
[2] = 313.15 K; 101 kPa; Liquid; Sing-around technique in a fixed-path interferometer

O=C[O-].[NH3+]CCCO [3-hydroxypropylammonium formate] + O
[1]
Settings	mass density, 298.15 K [kg/m3]	mass density, 303.15 K [kg/m3]	mass density, 308.15 K [kg/m3]	mass density, 313.15 K [kg/m3]	mass density, 318.15 K [kg/m3]	speed of sound, 298.15 K [m/s]	speed of sound, 303.15 K [m/s]	speed of sound, 308.15 K [m/s]	speed of sound, 313.15 K [m/s]	speed of sound, 318.15 K [m/s]
m1 = 0.1	998.637	997.222	995.623	993.757	991.751	1501.7	1513.4	1523.7	1532.4	1539.7
m1 = 0.2	1000.2	998.76	997.068	995.252	993.147	1507.7	1519	1528.9	1538.2	1545.2
m1 = 0.3	1001.76	1000.3	998.625	996.753	994.624	1513.5	1524.4	1533.9	1542	1548.6
m1 = 0.4	1003.33	1001.84	999.944	998.26	996.183	1519.7	1530.3	1539.6	1547.4	1553.8

O=C[C@H](O)[C@H](O)[C@H](O)CO [D-ribose] + O
[1]
Settings	mass density, 298.15 K [kg/m3]	mass density, 303.15 K [kg/m3]	mass density, 308.15 K [kg/m3]	mass density, 313.15 K [kg/m3]	mass density, 318.15 K [kg/m3]	speed of sound, 298.15 K [m/s]	speed of sound, 303.15 K [m/s]	speed of sound, 308.15 K [m/s]	speed of sound, 313.15 K [m/s]	speed of sound, 318.15 K [m/s]
m1 = 0.0504	999.789	998.382	996.751	994.911	992.887	1498.8	1511.5	1521.3	1531.3	1538.2
m1 = 0.06883	1000.78	999.363	997.73	995.882	993.852	1499.8	1512.3	1522.2	1532.1	1539
m1 = 0.08626	1001.7	1000.29	998.651	996.793	994.758	1500.7	1513.1	1523	1532.9	1539.7
m1 = 0.1107	1003	1001.58	999.932	998.065	996.017	1502	1514.3	1524.1	1534	1540.7
m1 = 0.136	1004.33	1002.89	1001.25	999.37	997.311	1503.3	1515.5	1525.3	1535.1	1541.8
m1 = 0.1566	1005.39	1003.96	1002.31	1000.41	998.355	1504.4	1516.5	1526.3	1536	1542.7

O [water]
Settings	speed of sound [m/s]
[2]	1528.9

O=C[C@H](O)[C@@H](O)[C@H](O)[C@H](O)CO [D-glucose] + O
[1]
Settings	mass density, 298.15 K [kg/m3]	mass density, 303.15 K [kg/m3]	mass density, 308.15 K [kg/m3]	mass density, 313.15 K [kg/m3]	mass density, 318.15 K [kg/m3]	speed of sound, 298.15 K [m/s]	speed of sound, 303.15 K [m/s]	speed of sound, 308.15 K [m/s]	speed of sound, 313.15 K [m/s]	speed of sound, 318.15 K [m/s]
m1 = 0.04842	1000.33	998.923	997.289	995.463	993.441	1499.3	1512.1	–	1531.8	–
m1 = 0.06669	1001.56	1000.14	998.498	996.672	994.638	–	1513.2	1523.1	1532.9	1539.7
m1 = 0.0976	1003.62	1002.18	1000.53	998.7	996.647	1502.3	1515.1	1525	1534.6	1541.4
m1 = 0.1066	1004.22	1002.77	1001.12	999.285	997.23	1502.9	1515.6	1525.5	1535.1	1541.9
m1 = 0.1235	1005.32	1003.87	1002.21	1000.38	998.311	1504	1516.7	1526.6	1536.1	1542.8
m1 = 0.1462	–	1005.34	1003.67	1001.84	999.761	1505.4	1518.1	–	1537.3	–
